From patent US20120277264A1, “ANTITHROMBOTIC AGENT” (Taiho Pharmaceutical Co., Ltd., priority 2009, published 2012)

Legend:
[1] = test system: thrombus formation in the arteria testicularis; test: Thrombus formation inhibitory action (FeCl3-induced thrombus, Test Example 1); type: in vivo; settings: male ICR mice; for large thrombus formation time: control about 14 minutes
Experimental: Male ICR mice (ten weeks old) were used. Rhodamine 6G (platelet fluorescence-labeling agent) was administered to the tail vein under anesthesia. With the abdomen open, the arteria testicularis was subjected to FeCl3 treatment to induce thrombus formation. Thrombus formation was observed by a real time color three-dimensional observation device, and the thrombus formation time was measured. Suplatast tosilate (IPD), the compound of the present invention, was dissolved in water and orally administered in a single dose (100 mg/kg) 30 minutes before the FeCl3 treatment or for 7 consecutive days (100 mg/kg, 30 mg/kg, 10 mg/kg) before the FeCl3 treatment. In addition, as a control drug, tirofiban (0.3 μmol/kg) was intravenously administered.

[2] = Amount of bleeding after tail amputation (side effect, Test Example 2); type: in vivo, mice
Experimental: Male ICR mice (ten weeks old) were used. The last 2 mm of the tail was amputated with a scalpel under pentobarbital anesthesia, and the tail 2 cm from the tip was immediately immersed in 10 mL of physiological saline at 37° C. Twenty minutes later, the tail was removed from the physiological saline, and 1 mL of Triton X-100 (25% in water) was added. The absorbance at 546 nm was measured, and the amount of bleeding was determined from a calibration curve. Suplatast tosilate (IPD, 100 mg/kg), the compound of the present invention, and a control drug, warfarin (10 mg/kg) were dissolved in distilled water and orally administered in a single dose one hour before amputating the tail, or orally administered for 7 consecutive days before amputating the tail. Distilled water was administered to the control.

[3] = test system: thrombus formation in the arteria testicularis; test: Thrombus formation inhibition, combined use with cilostazol (FeCl3-induced thrombus, Test Example 3); type: in vivo; settings: male ICR mice, control 12±3 minutes, P<0.05 vs. cont.
Experimental: Male ICR mice (ten weeks old) were used. Rhodamine 6G (platelet fluorescence-labeling agent) was administered to the tail vein under anesthesia. With the abdomen open, the arteria testicularis was subjected to FeCl3 treatment to induce thrombus formation. Thrombus formation was observed by a real time color three-dimensional observation device, and thrombus formation time was measured. Suplatast tosilate (IPD) (10 mg/kg) was dissolved in water and orally administered for 7 days before amputating the tail to the group that was given IPD alone. Cilostazol (10 mg/kg, 30 mg/kg, 100 mg/kg), a platelet aggregation inhibitor, was dissolved in water and orally administered in a single dose one hour before amputating the tail to the group that was given cilostazol alone. To the combination group of IPD and cilostazol, IPD (10 mg/kg) was orally administered for 7 days, and cilostazol (10 mg/kg) was orally administered in a single dose one hour before amputating the tail on the 7th day of the IPD administration.

With `CCCCS(=O)(=O)N[C@@H](Cc1ccc(OCCCCC2CCNCC2)cc1)C(=O)O` [tirofiban] the “large thrombus formation time” value ([1]; 0.3 μmol/kg intravenously, after FeCl3 stimulation) was 60 min.

For `CC(=O)CC(c1ccccc1)c1c(O)c2ccccc2oc1=O` (centres unmarked) [warfarin], the amount of bleeding ([2]; male ICR mice, 10 mg/kg orally for 7 consecutive days before amputating the tail) was “notable effect of increasing the amount of bleeding” and the amount of bleeding ([2]; male ICR mice, 10 mg/kg orally, single dose one hour before amputating the tail) was “notable effect of increasing the amount of bleeding”.

In the case of `CCOCC(O)COc1ccc(NC(=O)CC[S+](C)C)cc1.Cc1ccc(S(=O)(=O)[O-])cc1` (racemic) [IPD, (±)-[2-[4-(3-ethoxy-2-hydroxypropoxy)phenylcarbamoyl]ethyl]dimethylsulfonium p-toluenesulfonate], the “large thrombus formation time” value ([1]; 100 mg/kg orally, single dose 30 minutes before FeCl3 treatment) is reported as 45 min, the “large thrombus formation inhibitory action” value ([1]; oral administration for 7 consecutive days (100, 30, 10 mg/kg) vs single dose) is reported as “clearly enhanced” and the amount of bleeding ([2]; mouse, in vivo, po, 100 mg/kg) is reported as “did not have a significant effect on the amount of bleeding”. It also gave a thrombus formation time ([3]; IPD alone 10 mg/kg orally for 7 days) of 36 ± 11 min.

`O=C1CCc2cc(OCCCCc3nnnn3C3CCCCC3)ccc2N1` [cilostazol] gave a thrombus formation time ([3]; cilostazol alone, oral single dose (10, 30, 100 mg/kg tested; dose of this value not stated)) of 25 ± 5 min.
